From the supplement of paper PMC10307832

Assays:
Assay in all cases: relative viability (nuclei count vs DMSO), 5 days (fraction); higher = more cells survive
[1] = compound: COC1=CC=C(C=C1)COC2=C(C=C(C=C2)CC3=CN=C(N=C3N)N)OC [GW-2580] + CC(=O)c1c(C)c2cnc(Nc3ccc(N4CCNCC4)cn3)nc2n(C2CCCC2)c1=O [Palbociclib] (partner 0.5 µM)
Method in brief: (§1)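 Cells from lung cancer lines were seeded into 1536-well plates and, one day later, dosed by pin tool. Treatments were either a single drug or a fixed dose of an anchor drug with five library-drug doses (not always all listed) in √10 steps. After 5 days, nuclei were stained in a one-step fixation (final 0.05% Triton X-100, 1% formaldehyde, 1 ug/ml Hoechst) and counted on 4× images, and relative viability is the treated-to-vehicle nuclei ratio, as the median of duplicate plates.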

[2] = compound: COC1=CC=C(C=C1)COC2=C(C=C(C=C2)CC3=CN=C(N=C3N)N)OC [GW-2580] + CC(C)C[C@H](NC(=O)[C@H](Cc1ccccc1)NC(=O)c1cnccn1)B(O)O [Bortezomib] (partner 0.002 µM)
Method in brief: as §1

[3] = compound: COC1=CC=C(C=C1)COC2=C(C=C(C=C2)CC3=CN=C(N=C3N)N)OC [GW-2580] + C[C@@H](Oc1cc(-c2cnn(C3CCNCC3)c2)cnc1N)c1c(Cl)ccc(F)c1Cl [Crizotinib] (partner 1 µM)
Method in brief: as §1

[4] = compound: Cc1cnc(Nc2ccc(OCCN3CCCC3)cc2)nc1Nc1cccc(S(=O)(=O)NC(C)(C)C)c1 [Fedratinib] + CS(=O)(=O)N1CCN(Cc2cc3nc(-c4cccc5[nH]ncc45)nc(N4CCOCC4)c3s2)CC1 [Pictilisib] (partner 1 µM)
Method in brief: as §1

[5] = compound: Cc1cnc(Nc2ccc(OCCN3CCCC3)cc2)nc1Nc1cccc(S(=O)(=O)NC(C)(C)C)c1 [Fedratinib] + Nc1nc2[nH]cc(CCc3ccc(C(=O)N[C@@H](CCC(=O)O)C(=O)O)cc3)c2c(=O)[nH]1 [Pemetrexed] (partner 0.2 µM)
Method in brief: as §1

Cell Line | relative viability ([1]; first compound 0.08 µM) | relative viability ([1]; first compound 0.8 µM) | relative viability ([1]; first compound 2.53 µM) | relative viability ([1]; first compound 8 µM) | relative viability ([2]; first compound 0.08 µM) | relative viability ([2]; first compound 0.8 µM) | relative viability ([2]; first compound 2.53 µM) | relative viability ([2]; first compound 8 µM) | relative viability ([3]; first compound 0.08 µM) | relative viability ([3]; first compound 0.8 µM) | relative viability ([3]; first compound 2.53 µM) | relative viability ([3]; first compound 8 µM) | relative viability ([4]; first compound 0.1 µM) | relative viability ([4]; first compound 0.3162 µM) | relative viability ([4]; first compound 1 µM) | relative viability ([5]; first compound 0.1 µM) | relative viability ([5]; first compound 0.3162 µM) | relative viability ([5]; first compound 1 µM)
LU99A | 0.476 | 0.444 | 0.356 | 0.376 | 1.1 | 1.15 | 0.986 | 1.17 | 0.662 | 0.633 | 0.524 | 0.535 | 0.325 | 0.369 | 0.217 | 0.181 | 0.174 | 0.197
SW 1573 | 0.439 | 0.38 | 0.397 | 0.408 | 0.903 | 0.932 | 0.987 | 0.798 | 0.73 | 0.764 | 0.803 | 0.643 | 0.444 | 0.391 | 0.463 | 0.753 | 0.857 | 0.673
NCI-H2347 | 0.382 | 0.453 | 0.451 | 0.426 | 1.01 | 1.23 | 0.842 | 1.26 | 0.733 | 0.702 | 0.603 | 0.736 | 0.584 | 0.513 | 0.561 | 0.335 | 0.419 | 0.433
NCI-H2009 | 0.193 | 0.179 | 0.212 | 0.248 | 1.02 | 0.955 | 0.931 | 0.844 | 1.05 | 1.05 | 1.07 | 1.01 | 0.699 | 0.919 | 0.143 | 0.985 | 0.97 | 1.01
HCC-15 | 0.82 | 0.814 | 0.706 | 0.56 | 1.06 | 1.16 | 1.05 | 1.02 | 0.961 | 0.956 | 0.775 | 0.751 | 0.581 | 0.713 | 0.28 | 0.212 | 0.225 | 0.202
HCC-44 | 0.98 | 1.02 | 0.961 | 0.967 | 0.95 | 0.997 | 0.822 | 0.914 | 0.899 | 0.843 | 0.751 | 0.839 | 0.407 | 0.623 | 0.465 | 0.646 | 0.638 | 0.68
COR-L23 | 0.264 | 0.328 | 0.302 | 0.288 | 1.2 | 1.21 | 0.929 | 1.2 | 0.808 | 0.684 | 0.549 | 0.562 | 0.891 | 0.809 | 0.707 | 0.177 | 0.218 | 0.184
HCC-78 | 0.459 | 0.522 | – | 0.5 | 0.457 | 0.422 | 0.353 | 0.465 | 0.331 | 0.384 | 0.287 | 0.297 | 0.227 | – | 0.226 | 0.963 | 0.838 | 0.881
NCI-H2087 | 0.196 | 0.274 | 0.216 | 0.252 | 0.966 | 1.16 | 0.79 | 0.872 | 0.8 | 0.993 | 1 | 0.772 | 0.705 | 1 | 0.27 | 0.739 | 0.651 | 0.731
BEN | 0.491 | 0.507 | 0.471 | 0.491 | 0.674 | 0.879 | 0.55 | 0.799 | 0.937 | 1 | 0.785 | 0.958 | 0.477 | 0.575 | 0.498 | 0.653 | 0.755 | 0.669
LCLC-103H | 0.51 | 0.48 | 0.459 | 0.493 | 1.28 | 1.11 | 1.03 | 0.96 | 1.02 | 1.1 | 1.08 | 1.02 | 0.536 | 0.678 | 0.512 | 0.487 | 0.521 | 0.469
EKVX | 0.341 | 0.392 | 0.675 | 0.327 | 1.09 | 1.12 | 0.874 | 1.01 | 1.09 | 1.52 | 0.979 | 0.935 | 0.497 | 0.426 | 0.504 | 0.377 | 0.431 | 0.392
LXF-289 | 0.616 | 0.64 | 0.599 | 0.602 | 1 | 1.06 | 0.93 | 0.916 | 0.846 | 0.818 | 0.775 | 0.705 | 0.811 | 0.747 | 0.694 | 0.89 | 0.872 | 0.884
NCI-H650 | 0.314 | 0.373 | 0.28 | 0.317 | 0.807 | 1.06 | 0.658 | 0.845 | 0.834 | 0.663 | 0.668 | 0.594 | – | 0.701 | 0.727 | 0.866 | 0.887 | 0.835
NCI-H1650 | 0.395 | 0.48 | 0.354 | 0.326 | 0.218 | 0.232 | 0.164 | 0.199 | 1.06 | 1.29 | 1.36 | 0.919 | 0.355 | 0.571 | 0.155 | 0.292 | 0.312 | 0.37
